Tested on: CD8-expressing T cells
Assay: ELISPOT of IFN-γ secretion in T cells activated by dendritic cells loaded with LMP2a epitope groups
Format: cell-based, human
Details: DC:CD8 T cells 1:10, 18 hours
[1] = healthy human donor N5 (N5-1 and N5-2, repeated twice), FIGS. 1 and 2
[2] = healthy human donor N15, FIG. 4

Substance | expression of IFN-γ in T cells (ELISPOT) [1] | expression of IFN-γ in T cells (ELISPOT) (healthy human donor N9, FIG. 3) | expression of IFN-γ in T cells (ELISPOT) [2]
3 (MGAGPPSPGGDPDGD; LMP2a epitope) [compound 3] | increased expression of IFN-γ | increased expression of IFN-γ | increased expression of IFN-γ
5 (GGDPDGDDGGNNSQY; LMP2a epitope) [compound 5] |  |  | increased expression of IFN-γ
8 (SQYPSASGSYGNTPT; LMP2a epitope) [compound 8] |  | increased expression of IFN-γ | increased expression of IFN-γ
9 (SASGSYGNTPTPPND; LMP2a epitope) [compound 9] | increased expression of IFN-γ |  | increased expression of IFN-γ
12 (PNDEERESNEEPPPP; LMP2a epitope) [compound 12] | increased expression of IFN-γ |  | 
15 (PPPYEDLDWGNGDRH; LMP2a epitope) [compound 15] | increased expression of IFN-γ | increased expression of IFN-γ | increased expression of IFN-γ
16 (EDLDWGNGDRHSDYQ; LMP2a epitope) [compound 16] |  | increased expression of IFN-γ | 
18 (DRHSDYQPLGNQDPS; LMP2a epitope) [compound 18] | increased expression of IFN-γ |  | 
19 (DYQPLGNQDPSLYLG; LMP2a epitope) [compound 19] |  | increased expression of IFN-γ | 
20 (LGNQDPSLYLGLQHD; LMP2a epitope) [compound 20] |  | increased expression of IFN-γ | 
